Reference: patent publication US9084788B2, “Compositions and methods for treating and preventing dermatoses” (Asymmetric Therapeutics, LLC, priority 2002, dated 2015)

Key:
[1] = biological target: T1, OPRT (Homo sapiens, UniProt P11172); settings: neutral pH; cited from earlier work
T1 sequence (P11172 1-480): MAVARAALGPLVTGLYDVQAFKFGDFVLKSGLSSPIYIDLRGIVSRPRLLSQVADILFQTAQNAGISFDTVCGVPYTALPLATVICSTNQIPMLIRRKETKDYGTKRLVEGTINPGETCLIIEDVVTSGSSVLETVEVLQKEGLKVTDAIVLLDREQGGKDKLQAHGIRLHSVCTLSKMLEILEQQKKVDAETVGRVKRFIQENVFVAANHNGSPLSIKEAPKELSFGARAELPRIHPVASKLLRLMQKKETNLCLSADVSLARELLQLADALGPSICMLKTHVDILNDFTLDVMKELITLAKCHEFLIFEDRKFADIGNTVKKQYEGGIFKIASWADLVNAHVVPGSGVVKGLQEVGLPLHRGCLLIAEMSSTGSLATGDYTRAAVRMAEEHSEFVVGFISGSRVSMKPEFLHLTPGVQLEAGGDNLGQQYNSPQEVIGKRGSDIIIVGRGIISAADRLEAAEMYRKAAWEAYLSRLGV

[2] = biological target: T2, human dihydrouracil dehydrogenase (DPD) (Homo sapiens, UniProt Q12882); settings: Naguib et al. 1985; cited from earlier work
T2 sequence (Q12882 4-1025): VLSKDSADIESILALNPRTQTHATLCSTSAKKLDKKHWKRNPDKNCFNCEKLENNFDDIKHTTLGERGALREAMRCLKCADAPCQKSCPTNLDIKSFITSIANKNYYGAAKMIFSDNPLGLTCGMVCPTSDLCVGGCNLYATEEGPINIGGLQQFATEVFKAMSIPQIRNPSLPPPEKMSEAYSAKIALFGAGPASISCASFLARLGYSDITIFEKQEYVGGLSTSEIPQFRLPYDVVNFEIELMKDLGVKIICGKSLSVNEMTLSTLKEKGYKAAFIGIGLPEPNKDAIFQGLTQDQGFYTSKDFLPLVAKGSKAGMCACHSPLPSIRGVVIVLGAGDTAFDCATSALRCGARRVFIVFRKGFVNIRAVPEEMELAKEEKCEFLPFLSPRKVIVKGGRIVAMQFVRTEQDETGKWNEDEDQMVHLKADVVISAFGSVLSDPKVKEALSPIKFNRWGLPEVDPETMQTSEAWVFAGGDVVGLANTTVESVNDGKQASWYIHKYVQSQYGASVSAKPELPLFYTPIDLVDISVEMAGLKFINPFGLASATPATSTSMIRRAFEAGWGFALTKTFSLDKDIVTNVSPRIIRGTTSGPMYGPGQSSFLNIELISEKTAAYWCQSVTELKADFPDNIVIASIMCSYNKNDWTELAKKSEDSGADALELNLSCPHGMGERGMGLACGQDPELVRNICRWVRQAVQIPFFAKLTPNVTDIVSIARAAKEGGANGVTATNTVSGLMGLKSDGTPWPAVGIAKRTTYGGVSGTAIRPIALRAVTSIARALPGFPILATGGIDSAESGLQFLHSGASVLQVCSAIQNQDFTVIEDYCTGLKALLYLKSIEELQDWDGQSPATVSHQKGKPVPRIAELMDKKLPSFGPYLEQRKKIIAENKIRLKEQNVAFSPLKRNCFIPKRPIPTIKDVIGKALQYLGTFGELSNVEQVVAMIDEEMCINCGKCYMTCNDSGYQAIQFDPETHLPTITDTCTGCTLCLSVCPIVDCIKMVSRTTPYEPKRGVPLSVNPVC

[3] = biological target: T3, dihydropyrimidine dehydrogenase (DPD) (Homo sapiens, UniProt Q12882); settings: in vivo; cited from earlier work
T3 construct: greater than 80% of an injected dose of 5-FU rapidly degraded by a single pathway
T3 sequence (Q12882 4-1025): T2 sequence (Q12882 4-1025)

[4] = system: patients (hand-foot syndrome); settings: in vivo; cited from earlier work
[5] = system: Marker tumor (metastatic breast cancer); test: Marker tumor size in the metastatic breast cancer patient on Xeloda and Taxotere; format: in vivo, human; settings: seen prior to course 5, on lower dose Xeloda (1000 mg/m^2)
Description: They had refused mastectomy and had previously failed adriamycin and cytoxan, weekly taxol, and weekly navelbine. […] FIGS. 3A, 3B and 3C illustrate the incidence of Hand and Foot syndrome in patients treated with Xeloda®.

[6] = system: patients (Hand and Foot syndrome); test: Ten patients treated one to six months, prevention of Hand and Foot syndrome; format: in vivo, human
Description: The calculations are based on topical application of 1 g of cream to the hands and 1 g to the feet twice a day, totaling 4 g. […] A volume of distribution (Vd) of 50 L is assumed.

## O=c1[nH]cc(F)c(=O)[nH]1 [5-FU, 5-fluorouracil]
[1]
  OPRT preference for 5-FU over uracil: about 50 times
[2]
  substrate quality for DPD compared with uracil: better substrate
[3]
  share of an injected dose rapidly degraded by the DPD pathway: greater than 80%

## CCCCCOC(=O)Nc1nc(=O)n([C@@H]2O[C@H](C)[C@@H](O)[C@H]2O)cc1F [Xeloda, capecitabine]
[4]
  frequency of hand-foot syndrome during treatment: common
  patients with Grade II-III hand foot toxicity: 10-50%
[5]
  Marker tumor course (remark): progression

## O=c1cc[nH]c(=O)[nH]1 [Uracil, uracil]
[6]
  toxicity: no reports of toxicity
[6]; 1% cream
  prevention of Hand and Foot syndrome: complete efficacy

## O=C(O)c1cc(=O)[nH]c(=O)[nH]1 [Orotate, orotate]
[1]
  Km for OPRT, lower than that of 5-FU: ~50 fold
